What all share (test): growth of human tumour cells (NCI), 48 h
Test [1] deals with SF-295 CNS.
The subject of test [2] is MOLT-4 leukemia.
In test [3] the test system is RXF 393 renal.
Test [4] relates to ACHN renal.
Test [5] concerns TK-10 renal.
For test [6], the system named is 786-0 renal.
Test [7] concerns IGROV1 ovarian.
Test [8] relates to OVCAR-3 ovarian.
Test [9] has as its system UO-31 renal.
In test [10] the test system is CAKI-1 renal.

Each structure is given as a SMILES string.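 Each compound was tested at five concentrations against cells in 96-well plates for 48 hours. GI50 = concentration required for 50% inhibition of growth. TGI: concentration producing complete growth inhibition.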

Regarding `CCN1C(C)=NC2C(=O)c3ccccc3C(=O)C21` (stereo not drawn), the TGI in test [1], in test [2], in test [3], in [4], in [5] and in test [6] was above 100 µM throughout. Moreover, the TGI in test [7], in [8] and in test [9] was above 100 µM throughout.

Turning to `CC(C)C1C(=O)N2CCCC2C2(O)OC(NC(=O)C3C=C4c5cccc6[nH]cc(c56)CC4N(C)C3)(C(C)C)C(=O)N12` (stereo not drawn), the TGI was 64.4 µM in [1]; 53.8 µM in [2]; 43.4 µM in test [4]; 68.6 µM in test [5]; 33 µM in test [6]; 37.9 µM in test [10]. For the same molecule, the TGI is 36.5 µM in test [7], 80.6 µM in [8] and 37 µM in [9].

Regarding `O=S(=O)(NCCNc1cc(-c2cn(-c3ccccc3)nc2-c2cccc(O)c2)ccn1)c1ccc(C(F)(F)F)cc1`, the GI50 is 2.05 µM in [2]; 2.52 µM in [3]; 2.81 µM in [5]; 1.72 µM in [6]; 1.94 µM in test [10]; 2.36 µM in test [7]. Also, the figures for the GI50 in [8] and in [9] were 2.2 µM and 1.81 µM, respectively. The TGI in [2] stood at 5.71 µM; in test [3], 10 µM; in test [5], 18.7 µM; in test [6], 4.45 µM; in [10], 5.35 µM; in [7] it was 5.89 µM. Further, the TGI in test [8] came to 5.58 µM; in test [9], 4.28 µM.

As for `O=C(O)/C(Cl)=C(\Cl)Nc1cccc(C(F)(F)F)c1`, the TGI in [1], in test [3], in test [4], in test [5], in test [6] and in [10] was above 100 µM each time. Further, the TGI in test [7], in test [8] and in test [9] was above 100 µM each time.

As to `CCc1ccccc1NC(=O)/C(CC(=O)c1c(C)n([O-])c2ccccc2[n+]1=O)=N\NS(=O)(=O)c1ccc(C)cc1`, the TGI is above 100 µM in [1]; 42.6 µM in test [2]; above 100 µM in test [3]; above 100 µM in test [4]; above 100 µM in test [5]; above 100 µM in test [6]. In addition, the TGI in test [7] is above 100 µM; in test [8] it was 80.2 µM; in test [9], above 100 µM.

Regarding `COc1cc2[nH]c(C(=O)c3cc(OC)c(OC)c(OC)c3)c(N)c2cc1C#CCO`, the GI50 in [2] was 0.649 µM; in test [4], 0.515 µM; in test [5] it was 44.1 µM; in [6], 0.373 µM; in test [10], 0.537 µM; in [7], 0.795 µM. In addition, the GI50 in test [8] was 0.0491 µM; in test [9], 0.476 µM. The TGI in [2] was above 100 µM; in test [4], above 100 µM; in test [5], above 100 µM; in test [6] it was above 100 µM; in test [10], above 100 µM; in test [7], 68.8 µM. Besides, the TGI in test [8] worked out at 0.243 µM; in [9] it was 59 µM.

As to `CN1CCC23c4c5ccc(O)c4OC2C(=NN=C2CCC4(O)C6Cc7ccc(O)c8c7C4(CCN6C)C2O8)CCC3(O)C1C5` (stereo not drawn), the TGI in test [1], in test [2], in [4], in test [5], in [6] and in test [10] was above 100 µM in each case. Further, the TGI in test [7], in test [8] and in test [9] was above 100 µM each time.

Take `CSc1ccc(-c2cn3ccsc3n2)c(O)c1`: the TGI was above 100 µM in [1]; above 100 µM in [2]; above 100 µM in [4]; above 100 µM in test [5]; 43.3 µM in [6]; above 100 µM in test [10]. Further, the TGI in test [7], in [8] and in [9] was above 100 µM each time.

For `CC(C#N)c1cn(S(=O)(=O)c2ccccc2)c2ccccc12` (stereo not drawn), the TGI in [1], in [2], in test [4], in test [5], in [6] and in test [10] was above 100 µM throughout. The results for the TGI in [7], in test [8] and in test [9] were above 100 µM, above 100 µM and 62.4 µM, respectively.

`Cc1ccc(-c2csc(N(C(=O)N3CCN(c4cc5c(cc4F)c(=O)c(C(=O)O)cn5C4CC4)CC3)c3ccccc3)n2)cc1`: the GI50 was 0.303 µM in [1]; 0.368 µM in test [3]; 0.278 µM in test [4]; 0.541 µM in [5]; 0.292 µM in [6]; 0.373 µM in test [10]. The results for the GI50 in [7] and in [8] were 0.338 µM and 0.391 µM, respectively. In addition, the TGI is 1.86 µM in test [1]; 20.5 µM in [3]; above 100 µM in test [4]; 11.5 µM in test [5]; 1.83 µM in test [6]; above 100 µM in test [10]. Also, the TGI in test [7] and in [8] was above 100 µM throughout.

Regarding `C[C@H](c1ccc(Cl)cc1N)N1C(=O)c2cc(I)ccc2N(CCCN2CCN(C)CC2)C(=O)[C@@H]1c1ccc(Cl)cc1`, the GI50 was 1.75 µM in test [2]; 1.22 µM in test [4]; 1.61 µM in test [5]; 1.83 µM in test [6]; 1.3 µM in [10]; 1.29 µM in [7]. For the same molecule, the GI50 in [8] is 1.8 µM; in test [9] it was 0.359 µM. The TGI in test [2] was 3.59 µM; in test [4], 2.5 µM; in [5], 3.07 µM; in test [6], 3.37 µM; in test [10] it was 2.81 µM; in test [7] it was 3.12 µM. Besides, the figures for the TGI in test [8] and in test [9] were 3.28 µM and 1.9 µM, respectively.

Turning to `CCCCCCCCN(CCCCCCCC)C(=N)c1ccnc2ccccc12`, the GI50 in test [1] was 1.52 µM; in test [3] it was 0.874 µM; in test [4] it was 1.37 µM; in test [5], 1.44 µM; in test [6], 1.02 µM; in test [10], 1.17 µM. Also, the GI50 in test [8] is 1.2 µM; in [9], 0.953 µM. Further, the TGI in [1] came to 2.92 µM; in [3] it was 2.36 µM; in test [4] it was 2.78 µM; in test [5] it was 2.83 µM; in test [6], 2.37 µM; in test [10] it was 2.44 µM. Also, the TGI in test [8] came to 2.54 µM; in test [9] it was 2.29 µM.

`CCC1CCc2nc3sc(C(=O)Nc4ccccc4F)c(N)c3cc2C1` (stereo not drawn): the GI50 in test [1] is 0.669 µM; in [2], 0.471 µM; in [3] it was 1.18 µM; in test [4], above 100 µM; in test [6], 41.7 µM; in test [10], 0.768 µM. In addition, the GI50 in [7] was above 100 µM; in test [8] it was 0.454 µM; in test [9] it was above 100 µM. The TGI in [1], in test [2], in test [3], in test [4], in [6] and in test [10] was above 100 µM throughout. In addition, the results for the TGI in [7], in test [8] and in test [9] were above 100 µM, 8.98 µM and above 100 µM, respectively.

As to `CC(=O)O[C@H](C[C@H](C(C)C)N(C)C(=O)[C@@H](NC(=O)[C@H]1CCCCN1C)C(C)C)c1nc(C(=O)N[C@@H](Cc2ccccc2)C[C@H](C)C(=O)O)c(C)s1`, the GI50 in [1] is below 0.0025 µM; in test [2], below 0.0025 µM; in [5], above 25 µM; in [6] it was below 0.0025 µM; in test [7], 0.00302 µM; in test [8], below 0.0025 µM. In addition, the GI50 in test [9] was 0.0161 µM. Besides, the TGI in test [1], in [2], in test [5], in [6], in [7] and in test [8] was above 25 µM throughout. The TGI in [9] is above 25 µM.

Take `[N-]=[N+]=NC1(N=[N+]=[N-])C(=O)NN=C(c2ccccc2)C1=O` (stereo not drawn): the TGI was above 100 µM in test [1]; 73.6 µM in [2]; above 100 µM in test [3]; above 100 µM in [4]; above 100 µM in test [5]; above 100 µM in test [6]. For the same molecule, the TGI in [7], in [8] and in test [9] was above 100 µM in each case.

In the case of `O=c1[nH]cnc2c(C3OC(CO)C(O)C3O)[nH]nc12` (stereo not drawn), the TGI in test [1] was above 100 µM; in test [2], 81 µM; in test [3], above 100 µM; in [4], above 100 µM; in [6], above 100 µM; in [10], above 100 µM. Moreover, the TGI in [7] was above 100 µM; in [8] it was 53.5 µM; in [9], above 100 µM.

In the case of `CON(C)C(=O)C(Cc1ccccc1)NC(=O)OC(C)(C)C` (stereo not drawn), the TGI in test [1], in test [2], in test [3], in test [4], in test [5] and in test [6] was above 100 µM throughout. For the same molecule, the TGI in test [7], in test [8] and in [9] was above 100 µM in each case.

With `C[C@]12CCC3c4ccc(OC(=O)c5ccccc5)cc4CC[C@H]3C1CC[C@@H]2OC(=O)C12OC1CCC2=O` (stereo partly drawn), the TGI in test [1] amounted to 28.7 µM; in test [2], 5.78 µM; in test [3], 4.51 µM; in test [4], 10.4 µM; in [5] it was 33.9 µM; in [6], 6.4 µM. In addition, the TGI in test [7] came out at 9.22 µM; in [8], 8.82 µM; in test [9] it was 11.9 µM.

As to `C/C(=N\O)c1sc(-n2nc(-c3ccccc3)cc2-c2ccccc2)nc1C`, the TGI in [1] is 20.2 µM; in test [2] it was 25.5 µM; in test [4], 19.6 µM; in test [6] it was 15.8 µM; in test [10], 27.3 µM; in test [7] it was 22 µM. Further, the TGI was above 31.6 µM in test [8] and 15.3 µM in [9].

`O=C1C(=O)c2cc([N+](=O)[O-])ccc2-c2ccccc21`: the GI50 is 1.86 µM in [1]; 1.96 µM in test [3]; 1.6 µM in test [4]; 1.77 µM in test [5]; 1.97 µM in [6]; 1.67 µM in [10]. The figures for the GI50 in [7], in [8] and in test [9] were 1.9 µM, 1.42 µM and 1.45 µM, respectively. The TGI came out at 3.48 µM in test [1]; 3.43 µM in test [3]; 2.96 µM in test [4]; 3.19 µM in test [5]; 3.39 µM in test [6]; 3.21 µM in [10]. Moreover, the TGI worked out at 3.54 µM in test [7], 2.76 µM in test [8] and 2.86 µM in [9].

Consider `CCOC(=O)C12CCCC1(O)N(NC(=O)c1cccc(Cl)c1)C(C)=C2C(=O)OC` (stereo not drawn), for which the TGI in test [1], in [2], in [3], in [4], in [6] and in test [10] was above 100 µM in each case. Besides, the TGI in test [7], in test [8] and in test [9] was above 100 µM throughout.

For the molecule `CSc1nc(NC2OCC(OC(C)=O)C(OC(C)=O)C2OC(C)=O)c(N=CC=Nc2c(NC3OCC(OC(C)=O)C(OC(C)=O)C3OC(C)=O)nc(SC)n(C)c2=O)c(=O)n1C` (stereo not drawn), the TGI in test [1], in test [3], in test [4], in test [5], in test [6] and in test [7] was above 100 µM in each case. The TGI in [8] and in [9] was above 100 µM each time.

Take `CCCCCCCCCOC(=S)NC`: the TGI in test [1] stood at 67.5 µM; in test [2], 46.5 µM; in [4], 37.6 µM; in test [5], 54.6 µM; in test [6] it was 33.5 µM; in test [10], 43.1 µM. Besides, the TGI in test [7] stood at 63.7 µM; in [8] it was 36.1 µM; in test [9], 23.2 µM.

The values are drawn from PubChem BioAssay (NCI).
